The values that follow are results of earlier work, collected in US20060233842A1, “Microemulsion composition for oral administration of biphenyldimethyldicarboxylate” (priority 2002, published 2006).

Read-outs that look alike come from different tables or passages of the source.

`CCOCCOCCO` [transcutol, diethyleneglycol monoethylether]: the “LD50 for acute oral toxicity” value (Gattefosse product profile) is reported as 7.95 ml (specific gravity, 0.989)/kg.
With `CC(=O)OCC(COC(C)=O)OC(C)=O` [triacetine], the “LD50 for acute oral toxicity” value is 1.1 g/kg.
